Source: US20220257557A1, “PHARMACEUTICAL COMPOSITION FOR PREVENTING OR TREATING NEUROLOGICAL DISEASES” (GLACEUM INC., priority 2019, published 2022)

What was measured:
RAW264.7 cells [1] = assay: Transcription of NF-κB protein (p65, p50) into nucleus after LPS (Western blot); type: cell-based; conditions: 3 h pretreatment (Table 3 amounts), LPS 1 μg/ml 1 h
Procedure: RAW264.7 cells or BV2 cells (5×10^5 cells/well) were dispensed in DMEM containing 10% heat-inactivated FBS, 10 IU/mL penicillin G, 100 μg/mL streptomycin and 2 mM L-glutamine and cultured in a 5% CO2 incubator at a temperature of 37° C. […]
(§1) The pretreated cells of Experimental Example 4-1 were treated with 1 μg/ml of LPS for 1 hour, and then the level of transcription of NF-κB protein into the nucleus of each of p65 and p50 was analyzed through Western blot.

BV2 cells [2] = assay: as above; type: cell-based; conditions: 3 h pretreatment (Table 3 amounts), LPS 1 μg/ml 1 h
Procedure: (§2) RAW264.7 cells or BV2 cells (5×10^5 cells/well) were dispensed in DMEM containing 10% heat-inactivated FBS, 10 IU/mL penicillin G, 100 μg/mL streptomycin and 2 mM L-glutamine and cultured in a 5% CO2 incubator at a temperature of 37° C.
(§3) The compound of Formula III-3, III-4, V-3, III-1, IV-1, V-1, IV-2, V-2 or II-2 was added to the RAW264.7 cells or BV2 cells, and the toxicities of the compounds were determined by MTT assay.
as §1

RAW264.7 cells [3] = assay: NO and PGE2 production after LPS; type: cell-based; conditions: 3 h pretreatment (Table 3 amounts), LPS 1 μg/ml 24 h
Procedure: as §2, §3
(§4) The pretreated cells of Experimental Example 4-1 were treated with 1 μg/ml of LPS for 24 hours, and then the expression levels of iNOS and COX-2 were observed through Western blot, and the production of NO and PGE2 was measured.

BV2 cells [4] = assay: NO and PGE2 production after LPS; type: cell-based; conditions: 3 h pretreatment (Table 3 amounts), LPS 1 μg/ml 24 h
Procedure: as §2, §3, §4

RAW264.7 cells [5] = assay: IL-1β, IL-6 and TNF-α mRNA expression after LPS (RT-PCR); type: cell-based; conditions: 3 h pretreatment (Table 3 amounts), LPS 1 μg/ml 6 h
Procedure: as §2, §3
(§5) The pretreated cells of Experimental Example 4-1 were treated with 1 μg/ml of LPS for 6 hours, and then the mRNA expression level of the cytokine IL-1β, IL-6 or TNF-α produced in the inflammatory response was analyzed using RT-PCR.

BV2 cells [6] = assay: as above; type: cell-based; conditions: 3 h pretreatment (Table 3 amounts), LPS 1 μg/ml 6 h
Procedure: as §2, §3, §5

[7] = target: T1, rePON1 (PON1, paraoxonase 1) (Homo sapiens, UniProt P27169); assay: Prevention of inhibition of PON1 activity by oxidized linolenic acid (TBBL substrate); type: biochemical; conditions: for activity at 30 µM: 30 μM compound with rePON1 30 min, then oxidized linolenic acid 2 h, TBBL substrate, normal control 100, negative control 73.64; for extent to which inhibition of rePON1 activity was prevented, compared with glabridin: compound 30 μM vs glabridin 30 μM; for extent to which inhibition of rePON1 activity was prevented, compared with glabridin / inhibition of rePON1 activity by oxidized linolenic acid: result in words; for inhibition of rePON1 activity by oxidized linolenic acid: compound 30 μM
T1 construct: purchased Thermo Corp. RP-75678
Procedure: Based on the fact that the activity of PON1 is inhibited when PON1 is treated with oxidized linolenic acid, an experiment was conducted to confirm the prevention of inhibition of PON1 activity. The activity of PON1 was measured using TBBL (5-thiobutyl butyrolactones) as a substrate.
Specifically, after 9.6 μl of 50 mM Tris-HCl containing 1 mM CaCl2 was added to each of […] Eppendorf tubes, 0.2 μl of each of the compounds of Formulas III-1, IV-1, V-1, IV-2, V-2, II-1, IV-3, V-3, III-2, IV-4, V-4, II-2 and III-3 and glabridine was added to each tube so that the concentration thereof was 30 μM. 0.2 μl of rePON1 (RP-75678, Thermo Corp.) was added to each of the 12 tubes and mixed. Thereafter, each of the mixtures was allowed to react at room temperature for 30 minutes, and 0.5 μl of 1 mM oxidized linolenic acid (OX-LA) dissolved in DMSO was added thereto in order to inhibit rePON1 activity, followed by reaction at room temperature for 2 hours, thus preparing solutions (I).
25 μl of 0.5 mM DTNB dissolved in 50 mM Tris-HCl containing 1 mM CaCl2 was dispensed into each well of a 384-well plate, and then 10 μl of each of the solutions (I) was dispensed into each well, and 20 μl of 2 mM TBBL dissolved in 50 mM Tris-HCl containing 1 mM CaCl2 was added to each well, thus preparing samples. The absorbance of each of the samples at 420 nm was measured using a spectrometer (SpectraMax M2) at 37° C. every 2 minutes for 1 hour.
In addition, a negative control was prepared in the same manner as the above-described method, except that, for the preparation of a solution, 0.2 μl of DMSO was added instead of the compounds of Formulas III-1, IV-1, V-1, IV-2, V-2, II-1, IV-3, V-3, III-2, IV-4, V-4, II-2 and III-3 and glabridin. Furthermore, a normal control was prepared in the same manner as the above-described method, except that, for the preparation of a solution, 0.2 μl of DMSO was added instead of the above-described compounds and glabridin and that oxidized linolenic acid was not added. The absorbance of each of the negative control and the normal control was measured.
Using SoftMax Pro software, the activity of PON1 was calculated from the absorbance using the following Equation 1, and the results are shown in Table 1 below.
Activity=(absorbancesample−absorbanceblank)/(absorbancePON1−absorbanceblank)*100 [Equation 1]

RAW264.7 cells [8] = assay: iNOS and COX-2 expression after LPS (Western blot); type: cell-based; conditions: 3 h pretreatment (Table 3 amounts), LPS 1 μg/ml 24 h
Procedure: as §2, §3, §4

BV2 cells [9] = assay: iNOS and COX-2 expression after LPS (Western blot); type: cell-based; conditions: 3 h pretreatment (Table 3 amounts), LPS 1 μg/ml 24 h
Procedure: as §2, §3, §4

T1 sequence (P27169 whole entry): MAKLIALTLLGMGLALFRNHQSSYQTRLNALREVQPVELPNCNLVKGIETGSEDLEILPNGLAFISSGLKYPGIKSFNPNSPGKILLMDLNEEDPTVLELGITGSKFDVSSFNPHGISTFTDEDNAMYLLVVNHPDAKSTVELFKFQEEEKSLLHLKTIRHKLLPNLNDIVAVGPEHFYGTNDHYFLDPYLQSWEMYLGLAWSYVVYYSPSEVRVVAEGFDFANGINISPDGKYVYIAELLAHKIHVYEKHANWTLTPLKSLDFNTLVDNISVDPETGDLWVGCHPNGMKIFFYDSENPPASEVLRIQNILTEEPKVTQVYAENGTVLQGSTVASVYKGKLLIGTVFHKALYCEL

Structure (SMILES)	level of transcription of NF-κB protein into the nucleus, p50 (RAW264.7 cells [1])	level of transcription of NF-κB protein into the nucleus, p65 (RAW264.7 cells [1])	level of transcription of NF-κB protein into the nucleus, p50 (BV2 cells [2])	level of transcription of NF-κB protein into the nucleus, p65 (BV2 cells [2])	production of NO (RAW264.7 cells [3])	production of PGE2 (RAW264.7 cells [3])	production of NO (BV2 cells [4])	production of PGE2 (BV2 cells [4])	mRNA expression level of IL-1β (RAW264.7 cells [5])	mRNA expression level of IL-6 (RAW264.7 cells [5])	mRNA expression level of TNF-α (RAW264.7 cells [5])	mRNA expression level of IL-1β (BV2 cells [6])	mRNA expression level of IL-6 (BV2 cells [6])	mRNA expression level of TNF-α (BV2 cells [6])	activity at 30 µM [7]	extent to which inhibition of rePON1 activity was prevented, compared with glabridin [7]	inhibition of rePON1 activity by oxidized linolenic acid [7]	expression level of COX-2 (RAW264.7 cells [8])	expression level of iNOS (RAW264.7 cells [8])	expression level of COX-2 (BV2 cells [9])	further results
CCOc1ccc([C@@H]2COc3c(ccc4c3CCC(C)(C)O4)C2)c(O)c1 [Formula IV-1, (R)-2-(8,8-dimethyl-2,3,4,8,9,10-hexahydropyrano[2,3-f]chromen-3-yl)-5-ethoxyphenol]	concentration-dependently decreased	concentration-dependently decreased	concentration-dependently decreased	concentration-dependently decreased	concentration-dependently decreased	concentration-dependently decreased	concentration-dependently decreased	concentration-dependently decreased	concentration-dependently decreased	concentration-dependently decreased	concentration-dependently decreased	concentration-dependently decreased	concentration-dependently decreased	concentration-dependently decreased	95%	greater	prevented	concentration-dependently decreased	concentration-dependently decreased	concentration-dependently decreased	expression level of iNOS (BV2 cells [9]): concentration-dependently decreased
CCCOc1ccc([C@@H]2COc3c(ccc4c3CCC(C)(C)O4)C2)c(O)c1 [Formula IV-2, (R)-2-(8,8-dimethyl-2,3,4,8,9,10-hexahydropyrano[2,3-f]chromen-3-yl)-5-propoxyphenol]	concentration-dependently decreased	concentration-dependently decreased	concentration-dependently decreased	concentration-dependently decreased	concentration-dependently decreased	concentration-dependently decreased	concentration-dependently decreased	concentration-dependently decreased	concentration-dependently decreased	concentration-dependently decreased	concentration-dependently decreased	concentration-dependently decreased	concentration-dependently decreased	concentration-dependently decreased	93.5%	greater	prevented	concentration-dependently decreased	concentration-dependently decreased	concentration-dependently decreased	expression level of iNOS (BV2 cells [9]): concentration-dependently decreased
CCOc1ccc([C@H]2COc3c(ccc4c3CCC(C)(C)O4)C2)c(O)c1 [Formula V-1, (S)-2-(8,8-dimethyl-2,3,4,8,9,10-hexahydropyrano[2,3-f]chromen-3-yl)-5-ethoxyphenol]	concentration-dependently decreased	concentration-dependently decreased	concentration-dependently decreased	concentration-dependently decreased	concentration-dependently decreased	concentration-dependently decreased	concentration-dependently decreased	concentration-dependently decreased	concentration-dependently decreased	concentration-dependently decreased	concentration-dependently decreased	concentration-dependently decreased	concentration-dependently decreased	concentration-dependently decreased	80.7%	greater	prevented	concentration-dependently decreased	concentration-dependently decreased	concentration-dependently decreased	expression level of iNOS (BV2 cells [9]): concentration-dependently decreased
CCCOc1ccc([C@H]2COc3c(ccc4c3CCC(C)(C)O4)C2)c(O)c1 [Formula V-2, (S)-2-(8,8-dimethyl-2,3,4,8,9,10-hexahydropyrano[2,3-f]chromen-3-yl)-5-propoxyphenol]	concentration-dependently decreased	concentration-dependently decreased	concentration-dependently decreased	concentration-dependently decreased	concentration-dependently decreased	concentration-dependently decreased	concentration-dependently decreased	concentration-dependently decreased	concentration-dependently decreased	concentration-dependently decreased	concentration-dependently decreased	concentration-dependently decreased	concentration-dependently decreased	concentration-dependently decreased	89.4%	greater	prevented	concentration-dependently decreased	concentration-dependently decreased	concentration-dependently decreased	expression level of iNOS (BV2 cells [9]): concentration-dependently decreased
